Patent US20250129119A1, “PEPTIDE HAVING ANTI-INFLAMMATORY ACTIVITY AND USE THEREOF” (CAREGEN CO., LTD., priority 2021, published 2025)

How the values were obtained:
Assay type in all cases: cell-based
[1] = test system: COX2 and INFγ mRNA expression induced by LPS in splenocytes; assay: RT-PCR of inflammatory gene mRNA in LPS-stimulated splenocytes; conditions: mouse splenocytes; peptide 5 μM and 50 μM; LPS 2 μg/mL; 3 hours; FIG. 1
Method: In order to confirm the effect of the peptides of the present invention synthesized in Synthesis Example 1 on the inflammatory response induced by LPS, the expression levels of mRNA of inflammatory cytokines COX2 and INFγ were measured by RT-PCR.
(§1) Specifically, 6-7 week old mice (C57BL/6, Young Bio Co., Ltd.) were sacrificed to obtain spleens, which were crushed using a cell strainer, and then centrifuged along with serum-free RPMI-1640 medium. The supernatant was discarded and red blood cells (RBCs) were removed twice using RBC lysis buffer. Then, after washing the resultant with serum-free RPMI-1640 medium, an appropriate amount of serum-free RPMI-1640 medium was added. The number of mouse splenocytes was measured, and the cells were inoculated into a 24-well plate at a density of 1×10^7 cells/well, and cultured overnight. Next day, the medium was replaced with serum-free medium and the cells were cultured for 4 hours, and then treated with the peptide of the present invention (5 μM and 50 μM) and LPS (2 μg/mL), which is an inflammation-inducing substance, as a stimulant, and cultured for 3 additional hours.
Next, cells were recovered after culture, and total RNA was extracted using an RNA extraction kit (Qiagen RNeasy kit), and after RNA quantification, cDNA was synthesized using a cDNA synthesis kit (Intron, Korea). […]

[2] = test system: secretion of TNF-α, IFN-γ and IL-17 induced by LPS in splenocytes; assay: ELISA of cytokine secretion in LPS-stimulated splenocytes; conditions: mouse splenocytes, peptide 5 μM and 50 μM, LPS 2 μg/mL, 24 hours
Method: In order to confirm the effect of the peptides of the present invention synthesized in Synthesis Example 1 on the inflammatory response induced by LPS, the secretion amounts of inflammatory cytokines TNF-α, IL-17, and INFγ were measured by ELISA.
as §1, with “centrifuged” for “centrifuged along”, “added thereto.” for “added.”, “24” for “3”
(§2) Next, the cell culture was recovered after cultivation, and the amounts of secretion of IL-17, IFN-γ, and TNF-α, which are secretion markers during Th17 differentiation, were measured using an ELISA kit (Quantikine ELISA Kit, R&D System, USA) specific to IL-17, IFN-γ, and TNF-α, and the absorbance was measured using Spectramax M2 (Molecular Devices).

[3] = test system: secretion of TNF-α, IL-1β and INFγ induced by TNF-α in splenocytes; assay: ELISA of cytokine secretion in TNF-α-stimulated splenocytes; conditions: mouse splenocytes, peptide 5 μM and 50 μM, TNF-α 20 nM, 24 hours
Method: In order to confirm the effect of the peptides of the present invention synthesized in Synthesis Example 1 on the inflammatory response induced by TNF-α, the secretion amounts of TNF-α, IL-1β, and INFγ, which are inflammatory cytokines, were measured by ELISA.
as §1, with “centrifuged” for “centrifuged along”, “added thereto.” for “added.”, “TNF-α (20 nM),” for “LPS (2 μg/mL),”, “24” for “3”
as §2, with “TNF-α, IL-1β,” for “IL-17, IFN-γ,”, “INFγ,” for “TNF-α,”, “inflammatory cytokines,” for “secretion markers during Th17 differentiation,”

[4] = test system: secretion of INFγ induced by LPS, TGF-β, and IL-23 in splenocytes; assay: ELISA of INFγ secretion in splenocytes stimulated with LPS, TGF-β and IL-23; conditions: mouse splenocytes; peptide 5 μM and 50 μM; LPS 2 μg/mL, TGF-β 20 ng/mL, IL-23 20 ng/mL; 24 hours; FIG. 4
Method: In order to confirm the effect of the peptides of the present invention synthesized in Synthesis Example 1 on the inflammatory response induced by LPS, TGF-β, and IL-23, the secretion amount of INFγ, which is an inflammatory cytokine, was measured by ELISA.
(§3) Specifically, 6-7 week old mice (C57BL/6, Young Bio Co., Ltd.) were sacrificed to obtain spleens, which were crushed using a cell strainer, and then centrifuged with serum-free RPMI-1640 medium. The supernatant was discarded and red blood cells (RBCs) were removed twice using RBC lysis buffer. Then, after washing the resultant with serum-free RPMI-1640 medium, an appropriate amount of serum-free RPMI-1640 medium was added thereto. The number of mouse splenocytes was measured, and the cells were inoculated into a 24-well plate at a density of 1×10^7 cells/well, and cultured overnight. […]
Next, the cell culture was recovered after cultivation, and the amount of secretion of INFγ, which is an inflammatory cytokine, was measured using an ELISA kit (Quantikine ELISA Kit, R&D System, USA) specific to INFγ, and the absorbance was measured using Spectramax M2 (Molecular Devices).

[5] = test system: secretion of IL-17 induced by TNF-α and IL-17A in splenocytes; assay: ELISA of IL-17 secretion in splenocytes stimulated with TNF-α and IL-17A; conditions: mouse splenocytes; peptide 5 μM and 50 μM; TNF-α 20 nM and IL-17A 200 ng/mL; 24 hours; FIG. 5
Method: In order to confirm the effect of the peptides of the present invention synthesized in Synthesis Example 1 on the inflammatory response induced by TNF-α and IL-17A, the secretion amount of IL-17, which is an inflammatory cytokine, was measured by ELISA.
as §3, with “mice” for “mice (C57BL/6, Young Bio Co., Ltd.)”
Next, the cell culture was recovered after cultivation, and the amount of secretion of IL-17, which is an inflammatory cytokine, was measured using an ELISA kit (Quantikine ELISA Kit, R&D System, USA) specific to […], and the absorbance was measured using Spectramax M2 (Molecular Devices).

[6] = test system: TNF-α, COX2, IL-6 and IL-8 mRNA expression in human keratinocytes HaCaT; assay: RT-PCR of inflammatory gene mRNA in HaCaT keratinocytes stimulated with TNF-α and hIL-17A; conditions: peptide 5 μM and 50 μM, TNF-α 10 nM and hIL-17A 200 ng/mL, one hour, FIG. 6
Method: In order to confirm the effect of the peptides of the present invention synthesized in Synthesis Example 1 on Th17-mediated inflammatory responses, the mRNA expression levels of TNF-α, COX2, IL-6, and IL-8 were measured by RT-PCR.
(§4) Specifically, the number of human keratinocytes HaCaT (CLS Cell Lines Service)) was measured, and the cells were inoculated into a 24-well plate at a density of 3×10^5 cells/well, and cultured overnight. Next day, the medium was replaced with serum-free medium and the cells were cultured for 4 hours, and then treated with the peptide of the present invention (5 μM and 50 μM) and TNF-α (10 nM) and hIL-17A (200 ng/mL), which are Th17 type inflammation-inducing cytokines, used as a stimulant, and cultured for one additional hour.
Next, cells were recovered after culture, and total RNA was extracted using an RNA extraction kit (Qiagen RNeasy kit), and after RNA quantification, cDNA was synthesized using a cDNA synthesis kit (Intron, Korea). A polymerase chain reaction (PCR) was performed by mixing a PCR premix (Intron, Korea), synthesized cDNA, and primers shown in [Table 3] below specific for each of the genes of TNF-α, COX2, IL-6, IL-8, and GAPDH. PCR products were electrophoresed on a 5% agarose gel and stained with ethidium bromide to confirm the mRNA expression levels of TNF-α, COX2, IL-6, and IL-8, which are genes associated with inflammation and autoimmune diseases.

[7] = test system: iNOS and pJNK in human keratinocytes HaCaT; assay: Western blot of iNOS and pJNK in HaCaT keratinocytes stimulated with TNF-α and hIL-17A; conditions: peptide 5 μM and 50 μM, TNF-α 10 nM and hIL-17A 200 ng/mL, 24 hours, FIG. 7
Method: In order to confirm the effect of the peptides of the present invention synthesized in Synthesis Example 1 on Th17-mediated inflammatory responses, the degree of phosphorylation of iNOS and pJNK, which are inflammation-inducing factors and signaling proteins, was measured by Western blot.
as §4, with “[…]” for “3×10^5”, “cytokines,” for “cytokines, used”, “24” for “one”, “hours.” for “hour.”
After cultivation, the cells were recovered to prepare a cell lysate, and a western blot was performed using antibodies against iNOS and pJNK (Cell Signaling Technology, USA) to confirm the patterns of protein expression.

SVSVGMKPSPRP [peptide of the present invention]
mRNA expression of COX2 (RT-PCR) [1]: significantly reduce | mRNA expression of INFγ (RT-PCR) [1]: significantly reduce | secretion of TNF-α (ELISA) ([2]; FIG. 2A): significantly reduce | secretion of IFN-γ (ELISA) ([2]; FIG. 2B): significantly reduce | secretion of IL-17 (ELISA) ([2]; FIG. 2C): significantly reduce | secretion of TNF-α (ELISA) ([3]; FIG. 3A): significantly reduce | secretion of IL-1β (ELISA) ([3]; FIG. 3B): significantly reduce | secretion of INFγ (ELISA) ([3]; FIG. 3C): significantly reduce | secretion of INFγ (ELISA) [4]: significantly reduce | secretion of IL-17 (ELISA) [5]: significantly reduce | mRNA expression of COX2 (RT-PCR) [6]: significantly reduce | mRNA expression of IL-6 (RT-PCR) [6]: significantly reduce | mRNA expression of IL-8 (RT-PCR) [6]: significantly reduce | mRNA expression of TNF-α (RT-PCR) [6]: significantly reduce | iNOS protein expression (Western blot) [7]: reduce | phosphorylation of JNK (Western blot) [7]: reduce
